Test results: ChEMBL document CHEMBL1127204, “Synthesis of 1,3-diamino-2-hydroxypropane derivatives as pseudosymmetric HIV protease inhibitors” (Bioorg Med Chem Lett, 1993)
Calls of active or inactive are those of the source. No cut-off for these calls is given here.

Target: Human immunodeficiency virus type 1 protease (Human immunodeficiency virus 1) (UniProt Q72874)
Test: Tested in vitro for inhibition of HIV-1 protease at concentration of 10e-6 M; No activity

| SMILES | inhibition |
| --- | --- |
| CC(C)(C)NC(=O)C1Cc2ccccc2CN1CC(O)CN1Cc2ccccc2CC1C(=O)NC(C)(C)C (centres undefined) | inactive |
| N[C@H](CCNC(=O)C1Cc2ccccc2CN1CC(O)CN1Cc2ccccc2CC1C(=O)NCC[C@H](N)C(=O)O)C(=O)O (some centres undefined) | inactive |
| CC(C)C(NC(=O)CN(Cc1ccccc1)CC(O)CN(CC(=O)NC(C(=O)NC(C)(C)C)C(C)C)Cc1ccccc1)C(=O)NC(C)(C)C (centres undefined) | inactive |
| CC(C)C(NC(=O)C1Cc2ccccc2CN1CC(O)CN1Cc2ccccc2CC1C(=O)NC(C(=O)NC(C)(C)C)C(C)C)C(=O)NC(C)(C)C (centres undefined) | inactive |
